{
  "source": "patent US9033962B2",
  "about": "“Photodynamic therapy including light pretreatment” (Case Western Reserve University, priority 2010, dated 2015)",
  "key": {"[1]": {"experiment": "Pc 4 fluorescence after topical application on mouse ear skin, with or without an initial light dose", "type": "in vivo", "details": "Pc 4 0.1 mg/mL topical on mouse ear skin, initial small light dose 50 J/cm2, versus 15 minutes of topical application without light", "source_text": "FIG. 1 is a pair of photographs showing that photoirradiation of mouse ear skin to which Pc 4 had been topically applied facilitates Pc 4 penetration into the skin.\n(§1) When treating skin, the area of skin can be covered with an opaque dressing during the interval of time between the first and second photoirradiation to prevent further activation of the photosensitizer by ambient light. While not intending to be bound by theory, the first photoirradiation may increase the ability of the photosensitizing agent to penetrate tissue as a result of breaking up aggregates of the photosensitizing agent and/or by disrupting the tissue barrier as a result of the release of reactive oxygen species. Accordingly, this first photoirradiation can also be referred to as the disruptive photoirradiation, or light pretreatment. The ability of light pretreatment to facilitate the penetration of photosensitizer to lower levels of skin is illustrated by FIGS. 1 and 2."}, "[2]": {"experiment": "Confocal imaging of skin sections from psoriasis patients with lesions treated with Pc 4 versus Pc 4 plus red light", "type": "in vivo, human", "details": "for location of Pc 4 fluorescence in skin: psoriasis lesions", "experimental": "FIG. 2 includes 4 sets of images obtained from confocal imaging of skin sections from two psoriasis patients with lesions to which Pc 4 (0.1 mg/ml) versus Pc 4 (0.1 mg/ml) plus 100 J/cm2 of red light (675 nm) was applied.\nas §1\nA variety of methods are available to determine the amount of energy and/or time necessary for an effective amount of the photosensitizer to reach the desired tissue level, such as a lower level of the skin, under the conditions being used. Such methods can be referred to as photosensitizer localization assays. For example, a biopsy can be obtained after administration of the photosensitizer from which the photosensitizer is chemically extracted and quantified using conventional analytic techniques such as UV spectrophotometry. The photosensitizer (e.g., Pc 4) can also be identified from biopsy samples using confocal imaging of the fluorescence of the photosensitizer either with or without the use of additional labels targeted at specific intracellular components (e.g., DAPI, mitotracker). Such techniques can be helpful to determine therapeutically effective doses, and also to evaluate non-responding subjects for possible poor photosensitizer permeation through the skin or other complications."}, "[3]": {"experiment": "Time interval for delivery of photosensitizer through skin, with or without first photoirradiation", "type": "in vivo", "details": "after a first photoirradiation", "source_text": "Once the first photoirradiation has been delivered to the area of tissue, a sufficient interval of time should be allowed to pass for an effective amount of the photosensitizer to further penetrate the tissue. In the case of skin tissue, a sufficient interval of time is preferably provided to allow the photosensitizer to reach the lower levels of skin such as the basal epidermis and/or the papillary dermis, which is the upper layer of the dermis immediately beneath the epidermis. The particular layer of skin targeted can vary depending on the disease being treated. Examples of sufficient intervals include 1 hour, 30 minutes, 10 minutes, 5 minutes, or any other interval within this range. In addition to providing sufficient time for the photosensitizer to penetrate the skin to the desired level, care should also be taken to avoid providing too much time, which can result in passage of significant amounts of the photosensitizer beyond the intended site."}, "[4]": {"details": "human skin 1-2 hours after Pc 4 applied, no light pretreatment; cited from earlier work"}, "[5]": {"details": "used topically on skin lesions; cited from earlier work"}},
  "data": [
    {"smiles": "CN(C)CCC[Si](C)(C)O[Si]1(O)n2c3c4ccccc4c2N=C2N=C(N=c4c5ccccc5c(n41)=NC1=NC(=N3)c3ccccc31)c1ccccc12", "note": "(stereo not shown) [Pc 4, HOSiPcOSi(CH3)2(CH2)3N(CH3)2]", "values": [
      {"measurement": "depth of Pc 4 in skin (Pc 4 fluorescence)", "setting": "[1]", "result": "enhanced"},
      {"measurement": "location of Pc 4 fluorescence in skin", "setting": "[2]; Pc 4 0.1 mg/ml alone, after more than one hour of application", "result": "limited to the stratum corneum"},
      {"measurement": "location of Pc 4 fluorescence in skin", "setting": "[2]; Pc 4 0.1 mg/ml for 1 hour followed by 100 J/cm2 red light (675 nm)", "result": "not only in the stratum corneum but also in the epidermis and upper dermis"},
      {"measurement": "Pc 4 fluorescence in the cells within the epidermis and upper dermis (higher magnification)", "setting": "[2]; Pc 4 + light (100 J/cm2, 675 nm)", "result": "there is indeed Pc 4 fluorescence"},
      {"measurement": "Pc 4 fluorescence in the cells within the epidermis and upper dermis (higher magnification)", "setting": "[2]; Pc 4 alone", "result": "not observed"},
      {"measurement": "absorption of Pc 4 into the epidermis and upper dermis", "setting": "[2]; initial dose of light on psoriatic lesions in humans to which Pc 4 has been applied", "result": "facilitates the absorption"},
      {"measurement": "time interval needed for delivery through skin", "setting": "[3]", "result": "fifteen"},
      {"measurement": "absorption in the epidermis", "setting": "[4]", "result": "significant absorption"},
      {"measurement": "absorption in the papillary dermis", "setting": "[4]", "result": "minimal to no absorption"},
      {"measurement": "safety profile", "setting": "[5]", "result": "excellent safety profile"}
    ]}
  ]
}
